Results as given in paper PMC6920806, “Synthesis of β-D-galactopyranoside-Presenting Glycoclusters, Investigation of Their Interactions with Pseudomonas aeruginosa Lectin A (PA-IL) and Evaluation of Their Anti-Adhesion Potential” (Biomolecules, 2019).
pIC50, pKd: −log10 of the molar value. Converted amounts (≈) assume the structure as drawn. “Also recorded” adds a separate entry of the source. Like-named read-outs stand apart in the source and are kept apart here.

Experiments:
lectin PA-IL [1] = target: T1, lectin PA-IL (Pseudomonas aeruginosa, UniProt Q05097); assay: Isothermal titration microcalorimetry (ITC); format: binding; conditions: for ΔH / Ka / −T ΔS / ΔG / n (stoichiometry): ITC, 25 °C; for Ka: association constant; for −T ΔS: calculated from ΔG = ΔH − TΔS; for ΔG: calculated from −RT ln Ka; for n (stoichiometry): single site-binding model
T1 construct: made in house; host or cells: Escherichia coli BL21(DE3)
Protocol: All the experiments were performed on MicroCal iTC200 (Malvern Instruments, Malvern, UK) at 25 °C. The freeze-dried lectin PA-IL was dissolved in 0.1 M Tris/HCl, 500 μM CaCl2, pH = 7.5, and equilibrated at room temperature for 1 h before ITC measurements. Multivalent galactosylated compounds 4, 7, 10 and 13 were diluted in the same buffer and used in 0.25–0.5 mM concentrations. Aliquots of 2 µL of the compounds were added automatically to the 0.078 mM or 0.088 mM PA-IL in the calorimeter cell. Blank experiments (injections of compounds to the buffer) were performed and heat responses were subtracted. Integrated heat effects were analyzed by global fitting of data obtained from three independent titrations for each tested compound by non-linear regression using a single site-binding model (Microcal Origin 7, Malvern Instruments, Malvern, UK). Fitted data yielded the association constant (Ka) and the enthalpy of binding (ΔH). Other thermodynamic parameters, i.e., changes in free energy (ΔG) and entropy (ΔS), were calculated from the following equation: ΔG = ΔH − TΔS = −RT ln Ka, where T is the absolute temperature and R = 8.314 J mol^−1 K^−1. The monosaccharide D-galactose was used as a control; 4 mM D-galactose was added to the 0.147 mM PA-IL in the calorimeter cell. Two titration experiments were performed and the heat responses were processed and evaluated as mentioned above.

lectin PA-IL [2] = target: T1, lectin PA-IL; assay: Hemagglutination inhibition assay (HIA) with microscope detection; format: biochemical; conditions: for Potency (MIC of standard/MIC of inhibitor) / β (Potency/Valency): HIA, standard D-galactose; for MIC (minimal inhibitory concentration): inhibition of hemagglutination caused by PA-IL (0.125 mg mL−1), papain-treated red blood cells B+
Protocol: PA-IL was dissolved in the buffer with calcium ions suitable for the activity of the lectin (20 mM Tris/HCl, 150 mM NaCl, 5 mM CaCl2, pH = 7.5) to the concentration 0.25 mg mL^−1. Lectin was mixed with carbohydrate inhibitors serially diluted in the buffer in a 5 µL:5 µL ratio. Therefore, the final (working) concentration of the lectin was 0.125 mg mL^−1. A total of 10 µL of 20% papain-treated, azid-stabilized red blood cells B^+ in the buffer was then added, and the mixture was thoroughly mixed and incubated for 5 min at room temperature. After incubation, the mixture was again mixed, transferred to a microscope slide, and examined. The examination was conducted using the Levenhuk D2L NG Digital Microscope (Levenhuk, Tampa, FL, USA). Images were obtained with a Levenhuk D2L digital camera (Levenhuk, Tampa, FL, USA) using the software ToupView for Windows (Version 3.7, Levenhuk, Tampa, FL, USA). The positive (experiment without inhibitor) and negative control (experiment without lectin) were prepared and processed in the same way using the appropriate volume of dissolving buffer instead of the omitted components. The minimal inhibitory concentration (MIC) of the inhibitor able to inhibit hemagglutination was determined and compared with the standard (D-galactose) and the potency of the inhibitor was calculated (MIC of the standard/MIC of the inhibitor).

lectin PA-IL [3] = target: T1, lectin PA-IL; assay: SPR inhibition of PA-IL binding to immobilized D-galactosides; conditions: for Potency (IC50 of standard/IC50 of inhibitor) / β (Potency/Valency): standard D-galactose
Protocol: Surface plasmon resonance (SPR) experiments were performed on a BIAcore T200 instrument (GE Healthcare, Chicago, IL, USA) at 25 °C, using HBST running buffer (10 mM HEPES, 150 mM NaCl, 0.5 mM CaCl2, 0.05% Tween 20, pH = 7). A CM5 sensor chip (GE Healthcare, Chicago, IL, USA) covered with a carboxymethylated dextran matrix was used for ligand immobilization. The sensor chip surface was activated with N-ethyl-N-(3-dimethylaminopropyl)carbodiimide/N-hydroxysuccinimide solution and then coated with streptavidin (Sigma-Aldrich, St. Louis, MO, USA) in 10 mM acetate pH = 5.0 according to the manufacturer’s standard protocol to a final response of 7000 RU. Unreacted groups were blocked with 1 M ethanolamine-HCl, pH = 8.5. 0.5 mM biotinylated carbohydrate (1:1 mixture of biotin-α-D-galactoside and biotin-β-D-galactoside for measuring channel and α-L-fucoside for blank channel, all Lectinity, Moskow, Russia) was injected into a particular channel at a flow rate of 5 μL min^−1.
In the experimental setup, SPR inhibition measurements were carried out simultaneously on both measuring and blank channels at a flow rate of 5 µL min^−1. […] The response of the blank channel was subtracted from the response of lectin bound to the galactose-modified surface at equilibrium and plotted against the concentration of inhibitor in order to determine IC50 (concentration of inhibitor resulting in 50% inhibition of binding). As IC50 is not a constant and depends on the experimental set-up, a parameter called potency was used for characterization. The potency of a tested inhibitor is the ratio of IC50 of a chosen standard inhibitor (in this case, D-galactose) and the inhibitor in question. Pure lectin PA-IL was used as a control (0% inhibition).

[4] = tested on: Pseudomonas aeruginosa CCM 3955 (ATCC 27853) cells; assay: Pseudomonas aeruginosa cross-linking assay with microscope detection; format: cell-based; conditions: for cross-linking of whole P. aeruginosa cells (cell aggregates): concentrations up to 5 mM, 10 min, microscope 100x
Protocol: Pseudomonas aeruginosa CCM 3955 (ATCC 27853) cells were inoculated from stock cells stored at −80 °C into a standard LB medium and were grown at 37 °C overnight under orbital shaking. The bacterial culture was kept in the fridge until further use. Prior to the experiment, bacterial cells were centrifuged at 4300× g (Eppendorf centrifuge MiniSpin, Eppendorf, Germany) for 2 min and subsequently washed three times with PBS buffer (137 mM NaCl, 2.7 mM KCl, 10 mM Na2HPO4, 1.8 mM KH2PO4). Bacterial cells were then diluted in PBS to an optical density OD600 = 1.5, which was checked using a spectrophotometer (WPA CO8000 Biovawe Cell Density Metr, Biochrom Ltd., Cambridge, UK). D-galactopyranoside-presenting inhibitors were diluted in ultrapure water to the concentration of 100 mM. Bacterial cells were mixed in a 9:1 ratio with the 10x concentrated selected compounds and gently mixed. The mixture was incubated at room temperature for 10 min and thoroughly mixed again. An amount of 5 µL of the mixture was transferred onto a microscope slide and observed under 100x magnification using an optical microscope (Olympus IX81F-3/IX81S1F-3, Olympus, Tokyo, Japan). As a negative control, bacterial culture mixed with ultrapure water in 9:1 ratio was used. The images were obtained using a phase contrast method and the background of the images was subtracted in GIMP.

[5] = read-out: IC50 (concentration of inhibitor resulting in 50% inhibition of binding), SPR, PA-IL 45 µM, galactoside-modified chip, 25 °C

T1 sequence (Q05097 2-122): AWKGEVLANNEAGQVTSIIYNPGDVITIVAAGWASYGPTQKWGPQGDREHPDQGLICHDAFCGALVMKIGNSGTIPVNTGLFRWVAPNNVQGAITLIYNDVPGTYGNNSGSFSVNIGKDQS

For `COC(=O)c1cc(OCc2cn(CCOCCOCCOCCn3cc(CO[C@@H]4O[C@H](CO)[C@H](O)[C@H](O)[C@H]4O)nn3)nn2)c(OCc2cn(CCOCCOCCOCCn3cc(CO[C@@H]4O[C@H](CO)[C@H](O)[C@H](O)[C@H]4O)nn3)nn2)c(OCc2cn(CCOCCOCCOCCn3cc(CO[C@@H]4O[C@H](CO)[C@H](O)[C@H](O)[C@H]4O)nn3)nn2)c1` [Compound 4], the ΔH (lectin PA-IL [1]) was -19.3 ± 0.241 kcal/mol, the Ka (lectin PA-IL [1]) was 128 ± 15.1 10^4 M^−1 and the “−T ΔS” value (lectin PA-IL [1]) was 11 ± 1.43 kcal/mol. The ΔG (lectin PA-IL [1]) was -8.32 ± 0.982 kcal/mol, the “n (stoichiometry)” value (lectin PA-IL [1]) was 0.51 ± 0.01 and the “Potency (MIC of standard/MIC of inhibitor)” value (lectin PA-IL [2]) was 128. For the same molecule, the “β (Potency/Valency)” value (lectin PA-IL [2]) was 42.7, the “MIC (minimal inhibitory concentration)” value (lectin PA-IL [2]) was 48.83 µM (≈ 82.3 µg/mL) and the “Potency (IC50 of standard/IC50 of inhibitor)” value (lectin PA-IL [3]; SPR) was 27.5. For the same molecule, the “β (Potency/Valency)” value (lectin PA-IL [3]; SPR) was 9.2, the pIC50 (lectin PA-IL [3]; [5]) was 5.17 and the “cross-linking of whole P. aeruginosa cells (cell aggregates)” value [4] was “Formation of aggregates was observed”.
For `OC[C@H]1O[C@@H](OCc2cn(CCOCCOCCOCCn3cc(COCC(COCc4cn(CCOCCOCCOCCn5cc(CO[C@@H]6O[C@H](CO)[C@H](O)[C@H](O)[C@H]6O)nn5)nn4)(COCc4cn(CCOCCOCCOCCn5cc(CO[C@@H]6O[C@H](CO)[C@H](O)[C@H](O)[C@H]6O)nn5)nn4)COCc4cn(CCOCCOCCOCCn5cc(CO[C@@H]6O[C@H](CO)[C@H](O)[C@H](O)[C@H]6O)nn5)nn4)nn3)nn2)[C@H](O)[C@@H](O)[C@H]1O` [Compound 7], the ΔH (lectin PA-IL [1]) was -26.29 ± 0.196 kcal/mol, the Ka (lectin PA-IL [1]) was 281 ± 23.5 10^4 M^−1 and the “−T ΔS” value (lectin PA-IL [1]) was 17.4 ± 1.59 kcal/mol. For the same molecule, the ΔG (lectin PA-IL [1]) was -8.8 ± 0.739 kcal/mol, the “n (stoichiometry)” value (lectin PA-IL [1]) was 0.32 ± 0.01 and the “Potency (MIC of standard/MIC of inhibitor)” value (lectin PA-IL [2]) was 256. For the same molecule, the “β (Potency/Valency)” value (lectin PA-IL [2]) was 64, the “MIC (minimal inhibitory concentration)” value (lectin PA-IL [2]) was 24.41 µM (≈ 52.2 µg/mL) and the “Potency (IC50 of standard/IC50 of inhibitor)” value (lectin PA-IL [3]; SPR) was 25.6. For the same molecule, the “β (Potency/Valency)” value (lectin PA-IL [3]; SPR) was 6.4, the pIC50 (lectin PA-IL [3]; [5]) was 5.14 and the “concentration at which aggregates distinguishable from the negative control were still observed” value [4] was 1.25 mM. The “cross-linking of whole P. aeruginosa cells (cell aggregates)” value [4] was “highest cross-linking activity; also recorded: Formation of aggregates was observed”.
With `OC[C@H]1O[C@@H](OCc2cn(CCn3cc(COCC(COCc4cn(CCn5cc(CO[C@@H]6O[C@H](CO)[C@H](O)[C@H](O)[C@H]6O)nn5)nn4)(COCc4cn(CCn5cc(CO[C@@H]6O[C@H](CO)[C@H](O)[C@H](O)[C@H]6O)nn5)nn4)COCc4cn(CCn5cc(CO[C@@H]6O[C@H](CO)[C@H](O)[C@H](O)[C@H]6O)nn5)nn4)nn3)nn2)[C@H](O)[C@@H](O)[C@H]1O` [Compound 13] the ΔH (lectin PA-IL [1]) was -32.03 ± 0.347 kcal/mol, the Ka (lectin PA-IL [1]) was 470 ± 54.5 10^4 M^−1 and the “−T ΔS” value (lectin PA-IL [1]) was 22.9 ± 2.904 kcal/mol. The ΔG (lectin PA-IL [1]) was -9.11 ± 1.06 kcal/mol, the “n (stoichiometry)” value (lectin PA-IL [1]) was 0.21 ± 0.01 and the “Potency (MIC of standard/MIC of inhibitor)” value (lectin PA-IL [2]) was 128. For the same molecule, the “β (Potency/Valency)” value (lectin PA-IL [2]) was 32, the “MIC (minimal inhibitory concentration)” value (lectin PA-IL [2]) was 48.83 µM (≈ 78.6 µg/mL) and the pIC50 (lectin PA-IL [3]; [5]) was 5.37. The “cross-linking of whole P. aeruginosa cells (cell aggregates)” value [4] was “no aggregates were observed; also recorded: no clearly distinguishable aggregates were detected”.
In the case of `COC(=O)c1cc(OCc2cn(CCn3cc(CO[C@@H]4O[C@H](CO)[C@H](O)[C@H](O)[C@H]4O)nn3)nn2)c(OCc2cn(CCn3cc(CO[C@@H]4O[C@H](CO)[C@H](O)[C@H](O)[C@H]4O)nn3)nn2)c(OCc2cn(CCn3cc(CO[C@@H]4O[C@H](CO)[C@H](O)[C@H](O)[C@H]4O)nn3)nn2)c1` [Compound 10], the pKd (lectin PA-IL [1]) was 6.09, the ΔH (lectin PA-IL [1]) was -16.3 ± 0.179 kcal/mol and the “−T ΔS” value (lectin PA-IL [1]) was 7.98 ± 0.925 kcal/mol. For the same molecule, the ΔG (lectin PA-IL [1]) was -8.29 ± 0.87 kcal/mol, the “n (stoichiometry)” value (lectin PA-IL [1]) was 0.53 ± 0.01 and the “Potency (MIC of standard/MIC of inhibitor)” value (lectin PA-IL [2]) was 64. The “β (Potency/Valency)” value (lectin PA-IL [2]) was 21.3, the “MIC (minimal inhibitory concentration)” value (lectin PA-IL [2]) was 97.66 µM (≈ 126 µg/mL) and the pIC50 (lectin PA-IL [3]) was 5.13. The “Potency (IC50 of standard/IC50 of inhibitor)” value (lectin PA-IL [3]; SPR) was 25.3, the “β (Potency/Valency)” value (lectin PA-IL [3]; SPR) was 8.4 and the “cross-linking of whole P. aeruginosa cells (cell aggregates)” value [4] was “Formation of aggregates was observed”.
